In PubChem BioAssay AID1745844 (Carcinogenic Potency Database (CPDB), 2022):

System: rodent lifetime carcinogenesis bioassay, tumor incidence TD50
Assay: chronic cancer bioassays in animals – CPDB, compiled studies (AID 1745844)
Conditions: rat, strain Fischer 344, in feed

Compound: Nc1c(Br)cc(Br)c2c1C(=O)c1ccccc1C2=O
- TD50 (females, site: liver, lesion: hepatocholangiocarcinoma, dosed 103 weeks, study length 104 weeks): 566 mg/kg/day
- TD50 (females, site: rectum, lesion: adenocarcinoma, dosed 103 weeks, study length 104 weeks): 420 mg/kg/day
- TD50 (females, site: rectum, lesion: polypoid adenoma, dosed 40 weeks, study length 66 weeks): 217 mg/kg/day
- TD50 (females, site: rectum, lesion: polypoid adenoma, dosed 103 weeks, study length 104 weeks): 74 mg/kg/day
- TD50 (females, site: skin, lesion: squamous-cell papilloma, dosed 103 weeks, study length 104 weeks): 2600 mg/kg/day
- TD50 (females, site: urinary bladder, lesion: transitional-cell carcinoma + transitional-cell papilloma + transitional epithelium, squamous-cell carcinoma + transitional ep, dosed 66 weeks, study length 66 weeks): 2190 mg/kg/day
- TD50 (females, site: urinary bladder, lesion: transitional-cell carcinoma + transitional-cell papilloma + transitional epithelium, squamous-cell carcinoma + transitional ep, dosed 103 weeks, study length 104 weeks): 304 mg/kg/day
- TD50 (females, site: urinary bladder, lesion: transitional-cell carcinoma, dosed 66 weeks, study length 66 weeks): 4830 mg/kg/day
- TD50 (females, site: urinary bladder, lesion: transitional-cell carcinoma, dosed 103 weeks, study length 104 weeks): 656 mg/kg/day
- TD50 (females, site: urinary bladder, lesion: transitional-cell papilloma, dosed 103 weeks, study length 104 weeks): 782 mg/kg/day
- TD50 (males, site: any site (literature study), lesion: several types, types named in the paper, dosed 39 weeks, study length 66 weeks): 123 mg/kg/day
- TD50 (males, site: any site (literature study), lesion: several types, types named in the paper, dosed 66 weeks, study length 66 weeks): 193 mg/kg/day
- TD50 (males, site: any site (literature study), lesion: several types, types named in the paper, dosed 103 weeks, study length 104 weeks): 130 mg/kg/day
- TD50 (males, site: colon + kidney + liver + rectum + urinary bladder, lesion: adenocarcinoma + polypoid adenoma + tubule adenoma + tubule carcinoma + hepatocholangiocarcinoma + hepatocellular adenoma + hepatoce, dosed 103 weeks, study length 104 weeks): 54.6 mg/kg/day
- TD50 (males, site: colon + rectum, lesion: adenocarcinoma, dosed 66 weeks, study length 66 weeks): 1870 mg/kg/day
- TD50 (males, site: colon + rectum, lesion: adenocarcinoma, dosed 103 weeks, study length 104 weeks): 320 mg/kg/day
- TD50 (males, site: colon + rectum, lesion: polypoid adenoma, dosed 39 weeks, study length 66 weeks): 297 mg/kg/day
- TD50 (males, site: colon + rectum, lesion: polypoid adenoma, dosed 66 weeks, study length 66 weeks): 426 mg/kg/day
- TD50 (males, site: colon + rectum, lesion: polypoid adenoma, dosed 103 weeks, study length 104 weeks): 64.3 mg/kg/day
- TD50 (males, site: colon, lesion: adenocarcinoma, dosed 103 weeks, study length 104 weeks): 2010 mg/kg/day
- TD50 (males, site: colon, lesion: polypoid adenoma, dosed 103 weeks, study length 104 weeks): 1660 mg/kg/day
- TD50 (males, site: kidney, lesion: tubule adenoma + tubule carcinoma, dosed 39 weeks, study length 66 weeks): 239 mg/kg/day
- TD50 (males, site: kidney, lesion: tubule adenoma + tubule carcinoma, dosed 66 weeks, study length 66 weeks): 1770 mg/kg/day
- TD50 (males, site: kidney, lesion: tubule adenoma + tubule carcinoma, dosed 103 weeks, study length 104 weeks): 264 mg/kg/day
- TD50 (males, site: kidney, lesion: tubule adenoma, dosed 39 weeks, study length 66 weeks): 239 mg/kg/day
- TD50 (males, site: kidney, lesion: tubule adenoma, dosed 66 weeks, study length 66 weeks): 1770 mg/kg/day
- TD50 (males, site: kidney, lesion: tubule adenoma, dosed 103 weeks, study length 104 weeks): 292 mg/kg/day
- TD50 (males, site: liver, lesion: hepatocellular adenoma + hepatoblastoma + hepatocellular carcinoma, dosed 39 weeks, study length 66 weeks): 70.3 mg/kg/day
- TD50 (males, site: liver, lesion: hepatocellular adenoma + hepatoblastoma + hepatocellular carcinoma, dosed 66 weeks, study length 66 weeks): 102 mg/kg/day
- TD50 (males, site: liver, lesion: hepatocellular adenoma + hepatoblastoma + hepatocellular carcinoma, dosed 103 weeks, study length 104 weeks): 53.8 mg/kg/day
- TD50 (males, site: liver, lesion: hepatocellular adenoma + hepatocellular carcinoma, dosed 39 weeks, study length 66 weeks): 70.3 mg/kg/day
- TD50 (males, site: liver, lesion: hepatocellular adenoma + hepatocellular carcinoma, dosed 66 weeks, study length 66 weeks): 102 mg/kg/day
- TD50 (males, site: liver, lesion: hepatocellular adenoma + hepatocellular carcinoma, dosed 103 weeks, study length 104 weeks): 53.8 mg/kg/day
- TD50 (males, site: liver, lesion: hepatocellular adenoma, dosed 39 weeks, study length 66 weeks): 97.8 mg/kg/day
- TD50 (males, site: liver, lesion: hepatocellular adenoma, dosed 66 weeks, study length 66 weeks): 386 mg/kg/day
- TD50 (males, site: liver, lesion: hepatocellular adenoma, dosed 103 weeks, study length 104 weeks): 71.4 mg/kg/day
- TD50 (males, site: liver, lesion: hepatocellular carcinoma, dosed 39 weeks, study length 66 weeks): 95.8 mg/kg/day
- TD50 (males, site: liver, lesion: hepatocellular carcinoma, dosed 66 weeks, study length 66 weeks): 114 mg/kg/day
- TD50 (males, site: liver, lesion: hepatocellular carcinoma, dosed 103 weeks, study length 104 weeks): 59.6 mg/kg/day
- TD50 (males, site: liver, lesion: hepatocholangiocarcinoma, dosed 39 weeks, study length 66 weeks): 1240 mg/kg/day
- TD50 (males, site: liver, lesion: hepatocholangiocarcinoma, dosed 103 weeks, study length 104 weeks): 1230 mg/kg/day
- TD50 (males, site: lung, lesion: alveolar/bronchiolar adenoma + alveolar/bronchiolar carcinoma, dosed 103 weeks, study length 104 weeks): 794 mg/kg/day
- TD50 (males, site: lung, lesion: alveolar/bronchiolar adenoma, dosed 103 weeks, study length 104 weeks): 1290 mg/kg/day
- TD50 (males, site: rectum, lesion: adenocarcinoma, dosed 103 weeks, study length 104 weeks): 363 mg/kg/day
- TD50 (males, site: rectum, lesion: polypoid adenoma, dosed 39 weeks, study length 66 weeks): 297 mg/kg/day
- TD50 (males, site: rectum, lesion: polypoid adenoma, dosed 66 weeks, study length 66 weeks): 426 mg/kg/day
- TD50 (males, site: rectum, lesion: polypoid adenoma, dosed 103 weeks, study length 104 weeks): 64.3 mg/kg/day
- TD50 (males, site: testis, lesion: interstitial-cell adenoma, bilateral + interstitial-cell adenoma, dosed 103 weeks, study length 104 weeks): 133 mg/kg/day
- TD50 (males, site: urinary bladder, lesion: transitional-cell carcinoma + transitional-cell papilloma, dosed 66 weeks, study length 66 weeks): 3640 mg/kg/day
- TD50 (males, site: urinary bladder, lesion: transitional-cell carcinoma + transitional-cell papilloma, dosed 103 weeks, study length 104 weeks): 564 mg/kg/day
- TD50 (males, site: urinary bladder, lesion: transitional-cell carcinoma, dosed 66 weeks, study length 66 weeks): 3640 mg/kg/day
- TD50 (males, site: urinary bladder, lesion: transitional-cell carcinoma, dosed 103 weeks, study length 104 weeks): 1790 mg/kg/day
- TD50 (males, site: urinary bladder, lesion: transitional-cell papilloma, dosed 103 weeks, study length 104 weeks): 846 mg/kg/day
